Reference: patent US9006241B2, “Pyrimidine derivatives” (Noviga Research AB, priority 2011, dated 2015)

What was measured:
Format in all cases: cell-based
PC-3 (prostate cancer) = assay: FMCA, PC-3; settings: PC-3 prostate cancer cells
Text: (§1) The Fluorometric Microculture Cytotoxicity Assay, FMCA (Larsson, R., et al.; Anticancer Res, 1989, 9, 1111-1119), is a three day non-clonogenic microplate-based cell viability assay used for measurement of the cytotoxic and/or cytostatic effect of compounds in vitro (Lindhagen, E. et al.; Nat. Protoc., 2008, 3, 1364-1369). FMCA represents a valuable method to measure cytotoxicity in a number of cell types, both cell lines and primary cells from patients (Larsson, R., et al.; Int. J. Cancer, 1992, 50, 177-185; Fridborg, H., et al.; Eur. J. Cancer, 1999. 35, 424-432; Dhar, S., et al.; Br. J. Cancer, 1996, 74, 888-896).
(§2) FMCA is based on the principle that fluorescein diacetate (FDA) is converted to the fluorescent probe fluorescein by esterases in the plasma membranes of living cells. For experiments, 96 or 384-well microplates are prepared with compounds and stored at −70° C. until use. Cells are then seeded into the drug-prepared plates and placed in an incubator for 72 h. On the last day of incubation, the plates are washed and a buffer containing FDA is added and incubated with the cells for 45 minutes. Finally the fluorescence per well is measured in a fluorometer and a Survival Index % (SI) for each compound-treated well is calculated with the equation: Compound-treated cells minus blank divided by control cells minus blank. A high SI-value indicates a large percentage of living cells and vice versa.
(§3) For dose-response experiments, 384-well plates were prepared as follows:
(§4) Compounds of the invention as well comparative kinase inhibitors sorafenib sunitinib, dasatinib, pazopanib and a reference compound disclosed in WO 2009/071535 (compound #107) were diluted with PBS to a concentration ten-times higher than the desired starting concentration. Then, a Biomek 2000 liquid handling system was employed to serially dilute the compounds in a deep-well 384-well plate. From this plate, assay plates containing 5 μl compound per well were prepared with the Biomek 2000. Certain compounds precipitated when diluted with PBS, and these compounds were therefore prepared in a 96-well plate manually as described above using culture medium RPMI 1640 instead of PBS.
(§5) The compounds were also tested at five concentrations, with five times serial dilution on the following cell types: CCRF-CEM, hTERT-RPE1 (normal retinal epithelial cells), hRPTEpiC (normal renal cells), and peripheral blood mononuclear cells (PBMC). Each experiment was performed three times, except for PBMC and hRPTEpiC, which were performed twice. SI-values were calculated, graphs were plotted using GraphPadPrism 5.0 (GraphPad Software Inc. La Jolla, Calif.) and IC50-values for each cell type and compound were determined from the curves.
(§6) The compounds of the invention were also tested on further cancer cell lines related to breast cancer (MDA-MB-231; see e.g. Cailleau, R., et al.; J. Natl. Cancer Inst., 1974, 53, 661-674), teniposide-resistant leukemia (CEM/VM1 see e.g. Danks, M., et al.; Cancer Res., 1987, 47, 1297-1301), leukemia (HL-60; see e.g. Collins, S., et al.; Nature, 1977, 270, 347-349), doxorubicin-resistant lung cancer (H69AR; see e.g. Mirski, S., et al.; Cancer Res., 1987, 47, 2594-2598), myeloma (RPMI 8226; see e.g. Matsuoka, Y., et al.; Proc. Soc. Exp. Biol. Med., 1967, 125, 1246-1250), doxorubicin-resistant myeloma (8226/Dox40; see e.g. Dalton, W., et al.; Blood, 1989, 15, 747-752), lymphoma (U-937, see e.g. Sundström, C., et al.; Int. […]

[1] = tested on: CCRF-CEM cancer cells - leukemia; assay: Fluorometric Microculture Cytotoxicity Assay (FMCA), CCRF-CEM; settings: Homo sapiens, 72 h incubation
Text: as §1, §2
In subsequent experiments, compounds were tested, along with a number of approved cancer drugs (dasatinib, pazopanib, sorafenib, and sunitinib) as described above. Initially, the acute lymphoblastic leukemia cell line CCRF-CEM was used throughout. In the assay plates, medium was added to six empty wells (blank wells) and wells were filled with PBS and cell suspension and served as control wells. SI-values were then calculated for each compound-treated well as described above. All experiments were conducted twice and a new batch of plates was prepared for each experiment.
as §3, §4, §5

RPMI 8226 (myeloma) = assay: FMCA, RPMI 8226; settings: Homo sapiens, RPMI 8226 myeloma cells
Text: as §1, §2, §3, §4, §5
as §6, with “Int. J. Cancer, 1976, 17, 565-577), vincristin-resistant lymphoma (U-937-vcr; see e.g. Botling, J., et al.; Int. J. Cancer, 1994, 58, 269-274), ovarian cancer (A2780; see e.g. Hamilton, T., et al.; Semin. Oncol., 1984, 11, 285-298), doxorubicin-resistant ovarian cancer (A2780/Adr), cisplatin-resistant ovarian cancer (A2780/Cis; see e.g. Behrens, B., et al. Cancer Res. 1987, 47, 414-418), pancreatic cancer (PANC-1, BxPC-3, and MIA PaCa-2; see e.g. Lieber, M., et al.; Int. J. Cancer, 1975, 15, 741-747; Loor, R., et al.; Clin. Lab.” for “Int.”

[2] = tested on: CEM/VM1 (teniposide-resistant leukemia); assay: FMCA, CEM/VM1; settings: Homo sapiens, CEM/VM1 teniposide-resistant leukemia cells
Text: as §1, §2, §3, §4, §5
as §6, with “Int. J. Cancer, 1976, 17, 565-577), vincristin-resistant lymphoma (U-937-vcr; see e.g. Botling, J., et al.; Int. J. Cancer, 1994, 58, 269-274), ovarian cancer (A2780; see e.g. Hamilton, T., et al.; Semin. Oncol., 1984, 11, 285-298), doxorubicin-resistant ovarian cancer (A2780/Adr), cisplatin-resistant ovarian cancer (A2780/Cis; see e.g. Behrens, B., et al. Cancer Res. 1987, 47, 414-418), pancreatic cancer (PANC-1, BxPC-3, and MIA PaCa-2; see e.g. Lieber, M., et al.; Int. J. Cancer, 1975, 15, 741-747; Loor, R., et al.; Clin. Lab.” for “Int.”

[3] = tested on: U-937-vcr (vincristin-resistant lymphoma); assay: FMCA, U-937-vcr; settings: U-937-vcr vincristin-resistant lymphoma cells
Text: as §1, §2, §3, §4, §5
as §6, with “Int. J. Cancer, 1976, 17, 565-577), vincristin-resistant lymphoma (U-937-vcr; see e.g. Botling, J., et al.; Int. J. Cancer, 1994, 58, 269-274), ovarian cancer (A2780; see e.g. Hamilton, T., et al.; Semin. Oncol., 1984, 11, 285-298), doxorubicin-resistant ovarian cancer (A2780/Adr), cisplatin-resistant ovarian cancer (A2780/Cis; see e.g. Behrens, B., et al. Cancer Res. 1987, 47, 414-418), pancreatic cancer (PANC-1, BxPC-3, and MIA PaCa-2; see e.g. Lieber, M., et al.; Int. J. Cancer, 1975, 15, 741-747; Loor, R., et al.; Clin. Lab.” for “Int.”

U-937 (lymphoma) = assay: FMCA, U-937; settings: Homo sapiens, U-937 lymphoma cells
Text: as §1, §2, §3, §4, §5
as §6, with “Int. J. Cancer, 1976, 17, 565-577), vincristin-resistant lymphoma (U-937-vcr; see e.g. Botling, J., et al.; Int. J. Cancer, 1994, 58, 269-274), ovarian cancer (A2780; see e.g. Hamilton, T., et al.; Semin. Oncol., 1984, 11, 285-298), doxorubicin-resistant ovarian cancer (A2780/Adr), cisplatin-resistant ovarian cancer (A2780/Cis; see e.g. Behrens, B., et al. Cancer Res. 1987, 47, 414-418), pancreatic cancer (PANC-1, BxPC-3, and MIA PaCa-2; see e.g. Lieber, M., et al.; Int. J. Cancer, 1975, 15, 741-747; Loor, R., et al.; Clin. Lab.” for “Int.”

[4] = tested on: A2780/Cis (cisplatin-resistant ovarian cancer); assay: FMCA, A2780/Cis; settings: A2780cis, A2780/Cis cisplatin-resistant ovarian cancer cells
Text: as §1, §2, §3, §4, §5
as §6, with “Int. J. Cancer, 1976, 17, 565-577), vincristin-resistant lymphoma (U-937-vcr; see e.g. Botling, J., et al.; Int. J. Cancer, 1994, 58, 269-274), ovarian cancer (A2780; see e.g. Hamilton, T., et al.; Semin. Oncol., 1984, 11, 285-298), doxorubicin-resistant ovarian cancer (A2780/Adr), cisplatin-resistant ovarian cancer (A2780/Cis; see e.g. Behrens, B., et al. Cancer Res. 1987, 47, 414-418), pancreatic cancer (PANC-1, BxPC-3, and MIA PaCa-2; see e.g. Lieber, M., et al.; Int. J. Cancer, 1975, 15, 741-747; Loor, R., et al.; Clin. Lab.” for “Int.”

[5] = tested on: H69AR (doxorubicin-resistant lung cancer); assay: FMCA, H69AR; settings: Homo sapiens, H69AR doxorubicin-resistant lung cancer cells
Text: as §1, §2, §3, §4, §5
as §6, with “Int. J. Cancer, 1976, 17, 565-577), vincristin-resistant lymphoma (U-937-vcr; see e.g. Botling, J., et al.; Int. J. Cancer, 1994, 58, 269-274), ovarian cancer (A2780; see e.g. Hamilton, T., et al.; Semin. Oncol., 1984, 11, 285-298), doxorubicin-resistant ovarian cancer (A2780/Adr), cisplatin-resistant ovarian cancer (A2780/Cis; see e.g. Behrens, B., et al. Cancer Res. 1987, 47, 414-418), pancreatic cancer (PANC-1, BxPC-3, and MIA PaCa-2; see e.g. Lieber, M., et al.; Int. J. Cancer, 1975, 15, 741-747; Loor, R., et al.; Clin. Lab.” for “Int.”

[6] = tested on: BxPC-3 (pancreatic cancer); assay: FMCA, BxPC-3; settings: Homo sapiens, BxPC-3 pancreatic cancer cells
Text: as §1, §2, §3, §4, §5, §6

[7] = tested on: MIA PaCa-2 (pancreatic cancer); assay: FMCA, MIA PaCa-2; settings: Homo sapiens, MIA PaCa-2 pancreatic cancer cells
Text: as §1, §2, §3, §4, §5, §6

[8] = tested on: A2780/Adr (doxorubicin-resistant ovarian cancer); assay: FMCA, A2780/Adr; settings: A2780/Adr doxorubicin-resistant ovarian cancer cells
Text: as §1, §2, §3, §4, §5
as §6, with “Int. J. Cancer, 1976, 17, 565-577), vincristin-resistant lymphoma (U-937-vcr; see e.g. Botling, J., et al.; Int. J. Cancer, 1994, 58, 269-274), ovarian cancer (A2780; see e.g. Hamilton, T., et al.; Semin. Oncol., 1984, 11, 285-298), doxorubicin-resistant ovarian cancer (A2780/Adr), cisplatin-resistant ovarian cancer (A2780/Cis; see e.g. Behrens, B., et al. Cancer Res. 1987, 47, 414-418), pancreatic cancer (PANC-1, BxPC-3, and MIA PaCa-2; see e.g. Lieber, M., et al.; Int. J. Cancer, 1975, 15, 741-747; Loor, R., et al.; Clin. Lab.” for “Int.”

HL-60 (leukemia) = assay: FMCA, HL-60; settings: Homo sapiens, HL-60 leukemia cells
Text: as §1, §2, §3, §4, §5, §6

[9] = tested on: PANC-1 (pancreatic cancer); assay: FMCA, PANC-1; settings: Homo sapiens, PANC-1 pancreatic cancer cells
Text: as §1, §2, §3, §4, §5, §6

[10] = tested on: 8226/Dox40 (doxorubicin-resistant myeloma); assay: FMCA, 8226/Dox40; settings: 8226/Dox40 doxorubicin-resistant myeloma cells
Text: as §1, §2, §3, §4, §5
as §6, with “Int. J. Cancer, 1976, 17, 565-577), vincristin-resistant lymphoma (U-937-vcr; see e.g. Botling, J., et al.; Int. J. Cancer, 1994, 58, 269-274), ovarian cancer (A2780; see e.g. Hamilton, T., et al.; Semin. Oncol., 1984, 11, 285-298), doxorubicin-resistant ovarian cancer (A2780/Adr), cisplatin-resistant ovarian cancer (A2780/Cis; see e.g. Behrens, B., et al. Cancer Res. 1987, 47, 414-418), pancreatic cancer (PANC-1, BxPC-3, and MIA PaCa-2; see e.g. Lieber, M., et al.; Int. J. Cancer, 1975, 15, 741-747; Loor, R., et al.; Clin. Lab.” for “Int.”

[11] = tested on: MDA-MB-231 (breast cancer); assay: FMCA, MDA-MB-231; settings: Homo sapiens, MDA-MB-231 breast cancer cells
Text: as §1, §2, §3, §4, §5, §6

A2780 (ovarian cancer) = assay: FMCA, A2780; settings: Homo sapiens, A2780 ovarian cancer cells
Text: as §1, §2, §3, §4, §5
as §6, with “Int. J. Cancer, 1976, 17, 565-577), vincristin-resistant lymphoma (U-937-vcr; see e.g. Botling, J., et al.; Int. J. Cancer, 1994, 58, 269-274), ovarian cancer (A2780; see e.g. Hamilton, T., et al.; Semin. Oncol., 1984, 11, 285-298), doxorubicin-resistant ovarian cancer (A2780/Adr), cisplatin-resistant ovarian cancer (A2780/Cis; see e.g. Behrens, B., et al. Cancer Res. 1987, 47, 414-418), pancreatic cancer (PANC-1, BxPC-3, and MIA PaCa-2; see e.g. Lieber, M., et al.; Int. J. Cancer, 1975, 15, 741-747; Loor, R., et al.; Clin. Lab.” for “Int.”

COc1ccc2[nH]cc(CCNc3nccc(Nc4ccc5c(c4)cc(C)n5C)n3)c2c1 [Example 13, N^4-(1,2-dimethyl-1H-indol-5-yl)-N^2-[2-(5-methoxy-1H-indol-3-yl)ethyl]pyrimidine-2,4-diamine]
EC50 (PC-3 (prostate cancer)): 380 nM
EC50 [1]: 19 nM
EC50 (RPMI 8226 (myeloma)): 120 nM
EC50 [2]: 38 nM
EC50 [3]: 29 nM
EC50 (U-937 (lymphoma)): 30 nM
EC50 [4]: 73 nM
EC50 [5]: 120 nM
EC50 [6]: 130 nM
EC50 [7]: 54 nM
EC50 [8]: 330 nM
EC50 (HL-60 (leukemia)): 20 nM
EC50 [9]: 860 nM
EC50 [10]: 180 nM
EC50 [11]: 380 nM
EC50 (A2780 (ovarian cancer)): 64 nM
